What is called IC50 is the concentration that inhibits the measured activity by half.

The target of the assay is SIK2 (Homo sapiens, UniProt Q9H0K1). Description: SIK2 Enzymatic Assay High Version 2 (High ATP). The class given is biochemical. As to conditions: enzyme 6 nM, 6 mM ATP and 400 μM HDAC5tide (each 2× final concentration); 30 minutes pre-incubation, 2 hours; ADP-Glo Max luminescence; read-out: SIK2 high ATP IC50 (μM) (Test Example 2). The method in brief:
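At room temperature, enzyme (6 nM, 2× final) was preincubated with compound for 30 min, then 6 mM ATP and 400 μM HDAC5tide (both 2× final) were added for 2 h. ADP formed was measured by ADP-Glo Max (2 h reagent, 1 h detection) using luminescence.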

Chain of SIK2 (Q9H0K1 whole entry, species assumed): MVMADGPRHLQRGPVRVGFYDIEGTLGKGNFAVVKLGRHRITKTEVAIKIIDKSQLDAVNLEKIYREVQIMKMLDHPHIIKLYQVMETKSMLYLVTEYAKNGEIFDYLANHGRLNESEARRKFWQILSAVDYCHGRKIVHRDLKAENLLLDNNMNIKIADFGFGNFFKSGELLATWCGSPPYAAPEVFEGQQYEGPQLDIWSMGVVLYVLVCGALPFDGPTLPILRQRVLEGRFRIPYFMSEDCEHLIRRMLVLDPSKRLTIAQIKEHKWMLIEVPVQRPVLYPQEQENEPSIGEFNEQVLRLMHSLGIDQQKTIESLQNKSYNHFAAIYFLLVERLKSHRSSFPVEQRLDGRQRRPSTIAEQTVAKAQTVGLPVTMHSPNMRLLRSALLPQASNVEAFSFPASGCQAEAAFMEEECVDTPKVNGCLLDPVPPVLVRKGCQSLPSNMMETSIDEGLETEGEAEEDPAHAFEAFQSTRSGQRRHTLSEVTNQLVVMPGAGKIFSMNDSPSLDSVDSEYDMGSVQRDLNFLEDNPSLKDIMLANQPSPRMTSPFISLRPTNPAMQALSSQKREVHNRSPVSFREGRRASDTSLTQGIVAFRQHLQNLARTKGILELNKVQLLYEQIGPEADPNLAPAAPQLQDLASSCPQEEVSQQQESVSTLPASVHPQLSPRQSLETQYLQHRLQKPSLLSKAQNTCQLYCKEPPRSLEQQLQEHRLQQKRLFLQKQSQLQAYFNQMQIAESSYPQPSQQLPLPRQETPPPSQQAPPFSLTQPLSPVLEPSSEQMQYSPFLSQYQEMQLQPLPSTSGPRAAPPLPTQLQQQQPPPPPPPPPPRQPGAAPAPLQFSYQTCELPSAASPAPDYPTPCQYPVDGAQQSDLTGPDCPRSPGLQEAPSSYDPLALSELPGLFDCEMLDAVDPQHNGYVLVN

For the compound `Cc1cc(-c2ccn3nc(NC(=O)C4CC4)cc3c2)c(O[C@@H]2CNC[C@@H]2F)cn1` [Example 279, N-[5-[5-[(3R,4S)-4-fluoropyrrolidin-3-yl]oxy-2-methyl-4-pyridyl]pyrazolo[1,5-a]pyridin-2-yl]cyclopropanecarboxamide], the IC50 is 0.0032 µM. For `CC#Cc1cc(-c2ccn3nc(NC(=O)C4CC4)cc3c2)c(O[C@H]2CCNC2)cn1` [Example 280, N-[5-[2-prop-1-ynyl-5-[(3S)-pyrrolidin-3-yl]oxy-4-pyridyl]pyrazolo[1,5-a]pyridin-2-yl]cyclopropanecarboxamide] the value was 0.0032 µM; for `CC#Cc1cc(-c2ccn3nc(NC(=O)C4CC4)cc3c2)c(O[C@@H]2CNC[C@@H]2F)cn1` [Example 281, N-[5-[5-[(3R,4S)-4-fluoropyrrolidin-3-yl]oxy-2-prop-1-ynyl-4-pyridyl]pyrazolo[1,5-a]pyridin-2-yl]cyclopropanecarboxamide], 0.00102 µM; for `Cc1cc(-c2ccn3nc(Nc4cc(C)c(=O)n(CC(C)C)n4)cc3c2)c(OCC(C)(C)O)cn1` [Example 282, 6-[[5-[5-(2-hydroxy-2-methyl-propoxy)-2-methyl-4-pyridyl]pyrazolo[1,5-a]pyridin-2-yl]amino]-2-isobutyl-4-methyl-pyridazin-3-one], 0.00608 µM. As for `Cc1cc(-c2ccn3nc(Nc4cc(C)c(=O)n(CCOC(F)F)n4)cc3c2)c(O[C@H]2CC[C@H](O)CC2)cn1` [Example 283, 2-[2-(difluoromethoxy)ethyl]-6-[[5-[5-(4-hydroxycyclohexoxy)-2-methyl-4-pyridyl]pyrazolo[1,5-a]pyridin-2-yl]amino]-4-methyl-pyridazin-3-one], the IC50 is 0.00429 µM. For the compound `Cc1cc(-c2ccn3nc(Nc4cc(C)c(=O)n(CCOC(F)F)n4)cc3c2)c(OCC(C)(C)O)cn1` [Example 284, 2-[2-(difluoromethoxy)ethyl]-6-[[5-[5-(2-hydroxy-2-methyl-propoxy)-2-methyl-4-pyridyl]pyrazolo[1,5-a]pyridin-2-yl]amino]-4-methyl-pyridazin-3-one], the IC50 stood at 0.0188 µM.

For the compound `Cc1cc(-c2ccn3nc(Nc4cc(C)nc(N5CCCC5)n4)cc3c2)c(OCC(C)(C)O)cn1` [Example 285, 2-methyl-1-[[6-methyl-4-[2-[(6-methyl-2-pyrrolidin-1-yl-pyrimidin-4-yl)amino]pyrazolo[1,5-a]pyridin-5-yl]-3-pyridyl]oxy]propan-2-ol], the IC50 stood at 0.0109 µM. Next, `Cc1cc(-c2ccn3nc(Nc4cc(C)nc(N5CCOCC5)n4)cc3c2)c(OCC(C)(C)O)cn1` [Example 286, 2-methyl-1-[[6-methyl-4-[2-[(6-methyl-2-morpholino-pyrimidin-4-yl)amino]pyrazolo[1,5-a]pyridin-5-yl]-3-pyridyl]oxy]propan-2-ol]: 0.0166 µM; `Cc1cc(-c2ccn3nc(Nc4cc(C)nc(N5CCCC5)n4)cc3c2)c(O[C@H]2CC[C@H](O)CC2)cn1` [Example 287, 4-[[6-methyl-4-[2-[(6-methyl-2-pyrrolidin-1-yl-pyrimidin-4-yl)amino]pyrazolo[1,5-a]pyridin-5-yl]-3-pyridyl]oxy]cyclohexanol]: 0.00144 µM; `Cc1cc(-c2ccn3nc(Nc4cc(C)nc(N5CCOCC5)n4)cc3c2)c(O[C@H]2CC[C@H](O)CC2)cn1` [Example 288, 4-[[6-methyl-4-[2-[(6-methyl-2-morpholino-pyrimidin-4-yl)amino]pyrazolo[1,5-a]pyridin-5-yl]-3-pyridyl]oxy]cyclohexanol]: 0.00696 µM. For `Cc1cc(-c2ccn3nc(Nc4cnc5cc[nH]c5n4)cc3c2)c(O[C@H]2CC[C@H](O)CC2)cn1` [Example 289, 4-[[6-methyl-4-[2-(5H-pyrrolo[2,3-b]pyrazin-3-ylamino)pyrazolo[1,5-a]pyridin-5-yl]-3-pyridyl]oxy]cyclohexanol] the value was 0.00114 µM; for `Cc1cc(-c2ccn3nc(Nc4cnc5cc[nH]c5n4)cc3c2)c(OCC(C)(C)O)cn1` [Example 291, 2-methyl-1-[[6-methyl-4-[2-(5H-pyrrolo[2,3-b]pyrazin-3-ylamino)pyrazolo[1,5-a]pyridin-5-yl]-3-pyridyl]oxy]propan-2-ol], 0.00809 µM. Next, `Cc1cc(-c2ccn3nc(Nc4nn(C)c5ncccc45)cc3c2)c(OCC(C)(C)O)cn1` [Example 292, 2-methyl-1-[[6-methyl-4-[2-[(1-methylpyrazolo[3,4-b]pyridin-3-yl)amino]pyrazolo[1,5-a]pyridin-5-yl]-3-pyridyl]oxy]propan-2-ol]: 0.0187 µM. In the case of `CCn1nc(Nc2cc3cc(-c4cc(C)ncc4OC[C@H]4OCC[C@@H]4O)ccn3n2)cc(C)c1=O` [Example 293, 2-ethyl-6-[[5-[5-[[(2R,3S)-3-hydroxytetrahydrofuran-2-yl]methoxy]-2-methyl-4-pyridyl]pyrazolo[1,5-a]pyridin-2-yl]amino]-4-methyl-pyridazin-3-one], the IC50 is less than 0.000847 µM. Next, `Cc1cc(-c2ccn3nc(Nc4cc(C)nc(N5CCOCC5)n4)cc3c2)c(OC[C@H]2OCC[C@@H]2O)cn1` [Example 294, (2R,3S)-2-[[6-methyl-4-[2-[(6-methyl-2-morpholino-pyrimidin-4-yl)amino]pyrazolo[1,5-a]pyridin-5-yl]-3-pyridyl]oxymethyl]tetrahydrofuran-3-ol]: 0.0138 µM; `Cc1cc(-c2ccn3nc(Nc4cnc(C(F)F)cn4)cc3c2)c(OC[C@H]2OCC[C@@H]2O)cn1` [Example 295, (2R,3S)-2-[[4-[2-[[5-(difluoromethyl)pyrazin-2-yl]amino]pyrazolo[1,5-a]pyridin-5-yl]-6-methyl-3-pyridyl]oxymethyl]tetrahydrofuran-3-ol]: 0.0176 µM.

`Cc1cc(-c2ccn3nc(Nc4cc(C)c(=O)n(CCOC(F)F)n4)cc3c2)c(OC[C@H]2OCC[C@@H]2O)cn1` [Example 296, 2-[2-(difluoromethoxy)ethyl]-6-[[5-[5-[[(2R,3S)-3-hydroxytetrahydrofuran-2-yl]methoxy]-2-methyl-4-pyridyl]pyrazolo[1,5-a]pyridin-2-yl]amino]-4-methyl-pyridazin-3-one]: the IC50 amounted to 0.00698 µM. Regarding `Cc1cc(-c2ccn3nc(Nc4cncc(C)n4)cc3c2)c(OC[C@H]2OCC[C@@H]2O)cn1` [Example 297, (2R,3S)-2-[[6-methyl-4-[2-[(6-methylpyrazin-2-yl)amino]pyrazolo[1,5-a]pyridin-5-yl]-3-pyridyl]oxymethyl]tetrahydrofuran-3-ol], the IC50 stood at 0.00781 µM. In the case of `Cc1cc(-c2ccn3nc(Nc4cc(C)nc(C(C)(C)C)n4)cc3c2)c(OC[C@H]2OCC[C@@H]2O)cn1` [Example 298, (2R,3S)-2-[[4-[2-[(2-tert-butyl-6-methyl-pyrimidin-4-yl)amino]pyrazolo[1,5-a]pyridin-5-yl]-6-methyl-3-pyridyl]oxymethyl]tetrahydrofuran-3-ol], the IC50 came to 0.00667 µM. Next, `Cc1cc(-c2ccn3nc(Nc4nn(C)c5ccccc45)cc3c2)c(OC[C@H]2OCC[C@@H]2O)cn1` [Example 299, (2R,3S)-2-[[6-methyl-4-[2-[(1-methylindazol-3-yl)amino]pyrazolo[1,5-a]pyridin-5-yl]-3-pyridyl]oxymethyl]tetrahydrofuran-3-ol]: 0.00675 µM; `CC#Cc1cc(-c2ccn3nc(Nc4cnn(C)c4)cc3c2)c(OC[C@H]2OCC[C@@H]2O)cn1` [Example 300, (2R,3S)-2-[[4-[2-[(1-methylpyrazol-4-yl)amino]pyrazolo[1,5-a]pyridin-5-yl]-6-prop-1-ynyl-3-pyridyl]oxymethyl]tetrahydrofuran-3-ol]: 0.00639 µM; `CC#Cc1cc(-c2ccn3nc(Nc4ccn(C)n4)cc3c2)c(OC[C@H]2OCC[C@@H]2O)cn1` [Example 301, (2R,3S)-2-[[4-[2-[(1-methylpyrazol-3-yl)amino]pyrazolo[1,5-a]pyridin-5-yl]-6-prop-1-ynyl-3-pyridyl]oxymethyl]tetrahydrofuran-3-ol]: 0.00773 µM. For `CC#Cc1cc(-c2ccn3nc(Nc4cc(C)nc(C)n4)cc3c2)c(OC[C@]23CN[C@H](CO2)C3)cn1` [Example 302, N-(2,6-dimethylpyrimidin-4-yl)-5-[5-[[(1S,4S)-5-oxa-2-azabicyclo[2.2.1]heptan-4-yl]methoxy]-2-prop-1-ynyl-4-pyridyl]pyrazolo[1,5-a]pyridin-2-amine] the value was 0.000975 µM; for `Cc1cc(Nc2cc3cc(-c4cc(Cl)ncc4OC[C@]45CN[C@H](CO4)C5)ccn3n2)nc(C)n1` [Example 303, 5-[2-chloro-5-[[(1S,4S)-5-oxa-2-azabicyclo[2.2.1]heptan-4-yl]methoxy]-4-pyridyl]-N-(2,6-dimethylpyrimidin-4-yl)pyrazolo[1,5-a]pyridin-2-amine], 0.000971 µM; for `Cc1cc(-c2ccn3nc(Nc4cc(C)c(=O)n(C)n4)cc3c2)c(O[C@H]2CC[C@@H](S(C)(=O)=O)CC2)cn1` [Example 305, 2,4-dimethyl-6-((5-(2-methyl-5-(((1s,4s)-4-(methylsulfonyl)cyclohexyl)oxy)pyridin-4-yl)pyrazolo[1,5-a]pyridin-2-yl)amino)pyridazin-3(2H)-one], 0.00117 µM. Next, `Cc1cc(-c2ccn3nc(Nc4ccc5cc[nH]c5n4)cc3c2)c(OCC(C)(C)C#N)cn1` [Example 307, 2,2-dimethyl-3-[[6-methyl-4-[2-(1H-pyrrolo[2,3-b]pyridin-6-ylamino)pyrazolo[1,5-a]pyridin-5-yl]-3-pyridyl]oxy]propanenitrile]: 0.00132 µM. As for `Cc1cc(-c2ccn3nc(Nc4ccc5nccn5n4)cc3c2)c(OCC(C)(C)C#N)cn1` [Example 308, 3-[[4-[2-(imidazo[1,2-b]pyridazin-6-ylamino)pyrazolo[1,5-a]pyridin-5-yl]-6-methyl-3-pyridyl]oxy]-2,2-dimethyl-propanenitrile], the IC50 stood at 0.00171 µM. On to `CNc1nc(C)cc(Nc2cc3cc(-c4cc(C)ncc4OCC(C)(C)C#N)ccn3n2)n1` [Example 309, 2,2-dimethyl-3-[[6-methyl-4-[2-[[6-methyl-2-(methylamino)pyrimidin-4-yl]amino]pyrazolo[1,5-a]pyridin-5-yl]-3-pyridyl]oxy]propanenitrile], for which the IC50 is less than 0.000847 µM.

Source of the values: patent US20240158392A1 (Janssen Biotech, Inc., priority 2021, published 2024).
